Drawing on US8993585B2, “Cyclic amine substituted pyrimidinediamines as PKC inhibitors” (Rigel Pharmaceuticals, Inc., priority 2007, dated 2015), this text covers IC50 for 42 molecules.

Test [1] deals with T1, PKC theta (Homo sapiens, UniProt Q04759).
T1 construct: purchased Upstate Biotechnologies, Temecula, CA 14-444
Put plainly: PKC assay, fluorescence polarization (Example 2), PKC theta. The test is classed as biochemical. The conditions noted are these: 5 μM ATP. On the procedure: The inhibition of PKC activity was measured by monitoring the production of phosphorylated peptide by fluorescence polarization at different concentrations of the inhibitor. Reactions were carried out in 96-well plate format with a total volume of 20 μL containing 20 mM HEPES, pH 7.4, 5 mM MgCl2, 0.2 mM CaCl2, 1 mM DTT, 0.02% Brij-35, 0.1 mg/mL phosphatidylserine, 0.02 mg/mL dioleoyl-sn-glycerol and 5 μM each of ATP and the peptide substrate. Compounds were first diluted serially in DMSO and then transferred to a solution containing the above concentrations of HEPES, MgCl2, CaCl2, DTT, and Brij-35 to yield 5× compound solutions in 2% DMSO, which was then added to the reaction solution. Reactions were initiated by the addition of PKC at a typical concentration as described in Table VI, and then allowed to incubate at room temperature for 20 min. At the end of this time, a combination of quench (EDTA) and detection (peptide tracer and antibody) reagents was added using the protocol of Invitrogen P2748.
(In general: Polarisation of emitted light reports the rotation of a fluorescent probe.)

Test [2] has as its system Human primary T cells. The experiment in a line: IL-2 ELISA, Human Primary T Cell, Anti-CD3+CD28+ (Example 3). It is filed as cell-based. The conditions noted are these: anti-CD3+CD28 stimulation. Put shortly:
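Human primary T cells, 100,000 per well, were pre-incubated with compound in Yssel's medium for 1 h at 37 °C. The counter-assay used 0.5 ng/ml PMA with 0.1 uM ionomycin final.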
Background: An ELISA detects its analyte on a solid surface through an enzyme-linked reagent.

A word on the IC50: it is the point on the concentration scale where inhibition reaches its midpoint.

SMILES strings stand for the structures.

T1 sequence (Q04759 whole entry): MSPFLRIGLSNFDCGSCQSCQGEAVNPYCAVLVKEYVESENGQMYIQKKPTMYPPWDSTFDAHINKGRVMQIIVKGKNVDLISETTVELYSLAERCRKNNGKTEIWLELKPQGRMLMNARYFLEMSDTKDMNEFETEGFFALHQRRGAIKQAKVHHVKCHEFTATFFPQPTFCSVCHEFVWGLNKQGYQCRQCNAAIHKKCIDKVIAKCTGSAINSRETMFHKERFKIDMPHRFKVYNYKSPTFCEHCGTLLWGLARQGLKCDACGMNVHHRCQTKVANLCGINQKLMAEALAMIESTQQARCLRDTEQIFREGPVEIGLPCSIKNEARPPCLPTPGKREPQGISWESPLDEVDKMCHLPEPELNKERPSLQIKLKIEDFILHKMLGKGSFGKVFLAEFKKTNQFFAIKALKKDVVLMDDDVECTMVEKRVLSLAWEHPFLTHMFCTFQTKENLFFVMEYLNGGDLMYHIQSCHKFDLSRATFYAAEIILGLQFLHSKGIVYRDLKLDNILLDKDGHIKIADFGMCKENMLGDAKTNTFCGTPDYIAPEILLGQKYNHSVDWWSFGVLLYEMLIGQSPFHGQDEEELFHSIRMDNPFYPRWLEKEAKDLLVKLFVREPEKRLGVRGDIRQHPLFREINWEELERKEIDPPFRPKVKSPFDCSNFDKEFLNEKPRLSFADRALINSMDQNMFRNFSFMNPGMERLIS

As for `CN1C(C)(C)CC(Nc2nc(Nc3ccc(N4CCOCC4)c(C#N)c3)ncc2F)CC1(C)C` [Compound I-198], the IC50 in test [1] is 1.94 nM; in test [2] (Homo sapiens, T-cell, 24 h), 175 nM.

As for `CN1C(C)(C)CC(Nc2nc(Nc3ccc(C#N)c(Cl)c3)ncc2Cl)CC1(C)C` [Compound I-35], the IC50 in test [1] was found to be 24 nM; in test [2] (Homo sapiens, T-cell, 24 h), 145 nM.

On to `CN1C(C)(C)CC(Nc2nc(Nc3cccc(OC(F)F)c3)ncc2F)CC1(C)C` [Compound I-234], for which the IC50 in test [1] is 13.6 nM; in test [2] (Homo sapiens, T-cell, 24 h) it was 222 nM.

Consider `CN1C(C)(C)CC(Nc2nc(Nc3ccc(-c4cccnc4)cc3)ncc2F)CC1(C)C` [Compound I-124], for which the 50% inhibitory concentration (IC50) in test [1] came to 55.7 nM; in test [2] (Homo sapiens, T-cell, 24 h) it was 540 nM.

Consider `CN1C(C)(C)CC(Nc2nc(Nc3ccc(N4CCN(S(=O)(=O)C5CC5)CC4)c(C(F)(F)F)c3)ncc2F)CC1(C)C` [Compound I-173], for which the IC50 in test [1] was 26.6 nM; in test [2] (Homo sapiens, T-cell, 24 h) it was 377 nM.

As to `CN1CCN(c2ccc(Nc3ncc(C(F)(F)F)c(NC4CC(C)(C)N(C)C(C)(C)C4)n3)cc2Cl)CC1` [Compound I-34], the IC50 in test [1] amounted to 4 nM; in test [2] (Homo sapiens, T-cell, 24 h), 123 nM.

Turning to `CN1C(C)(C)CC(Nc2nc(Nc3cc(C(F)(F)F)cc(C(F)(F)F)c3)ncc2F)CC1(C)C` [Compound I-146], the IC50 in test [1] came out at 123 nM; in test [2] (Homo sapiens, T-cell, 24 h), 252 nM.

Take `CCN1C(=O)C(C)(C)Oc2cc(Nc3ncc(OC)c(NC4CC(C)(C)N(C)C(C)(C)C4)n3)ccc21` [II-130]: the IC50 in test [1] is 10.1 nM; in test [2] (Homo sapiens, T-cell, 24 h), 720 nM.

With `CN1C(C)(C)CC(Nc2nc(Nc3ccc(-c4cnn(C)c4)c(C(F)(F)F)c3)ncc2F)CC1(C)C` [Compound I-126], the IC50 in test [1] was 12 nM; in test [2] (Homo sapiens, T-cell, 24 h), 243 nM.

As for `CN1CCN(c2cccc(Nc3ncc(F)c(NC4CC(C)(C)N(C)C(C)(C)C4)n3)c2)CC1` [Compound I-2], the IC50 came out at 407 nM in test [1] and 1570 nM in test [2] (Homo sapiens, T-cell, 24 h).

As to `CN1C(C)(C)CC(Nc2nc(Nc3cc(-c4ccoc4)cc(C(F)(F)F)c3)ncc2F)CC1(C)C` [Compound I-203], the IC50 in test [1] stood at 92 nM; in test [2] (Homo sapiens, T-cell, 24 h) it was 427 nM.

As for `CN1CCN(c2ccc(Nc3ncc(F)c(NC4CCN(CCO)CC4)n3)cc2C(F)(F)F)CC1` [III-7, 5-Fluoro-N4-[1-(2-hydroxyethyl)piperidin-4-yl]-N2-[4-(4-methylpiperazino)-3-trifluoromethyl]phenyl-2,4-pyrimidinediamine], the IC50 in test [1] came to 254 nM; in test [2] (Homo sapiens, T-cell, 24 h) it was 1140 nM.

As for `Cc1ccc(Nc2ncc(F)c(NC3CC(C)(C)N(C)C(C)(C)C3)n2)cc1Cl` [Compound I-332], the IC50 in test [1] amounted to 36 nM; in test [2] (Homo sapiens, T-cell, 24 h), 299 nM.

With `CN1C(C)(C)CC(Nc2nc(Nc3ccc(Br)c(C(F)(F)F)c3)ncc2F)CC1(C)C` [Compound I-109], the IC50 came to 107 nM in test [1] and 345 nM in test [2] (Homo sapiens, T-cell, 24 h).

On to `CN1C(C)(C)CC(Nc2nc(Nc3ccc(N4CCN(S(=O)(=O)C5CC5)CC4)c(Cl)c3)ncc2F)CC1(C)C` [Compound I-174], for which the IC50 stood at 10.7 nM in test [1] and 270 nM in test [2] (Homo sapiens, T-cell, 24 h).

With `CCN1C(=O)CCc2cc(Nc3ncc(F)c(NC4CC(C)(C)N(C)C(C)(C)C4)n3)ccc21` [II-5], the IC50 in test [1] stood at 37.8 nM; in test [2] (Homo sapiens, T-cell, 24 h), 561 nM.

As for `CN1CCN(c2ccc(Nc3ncc(F)c(NC4CC(C)(C)N(C)C(C)(C)C4)n3)cc2OC(F)F)CC1` [Compound I-236], the IC50 amounted to 2.41 nM in test [1] and 121 nM in test [2] (24 hours).

With `Cc1cc(N2CCN(C)CC2)ncc1Nc1ncc(F)c(NC2CC(C)(C)N(C)C(C)(C)C2)n1` [Compound I-8], the IC50 in test [1] was 213 nM; in test [2] (Homo sapiens, T-cell, 24 h), 5810 nM.

On to `Cc1ccc(Nc2ncc(F)c(NC3CC(C)(C)N(C)C(C)(C)C3)n2)cc1-c1cnn(C)c1` [Compound I-190], for which the half-inhibitory concentration (IC50) is 14.5 nM in test [1] and 516 nM in test [2] (Homo sapiens, T-cell, 24 h).

In the case of `CN1C(C)(C)CC(Nc2nc(Nc3ccc(-c4ccoc4)c(C(F)(F)F)c3)ncc2F)CC1(C)C` [Compound I-328], the IC50 came to 45.7 nM in test [1] and 288 nM in test [2] (Homo sapiens, T-cell, 24 h).

On to `Cc1ccc2cc(Nc3ncc(F)c(NC4CC(C)(C)N(C)C(C)(C)C4)n3)ccc2n1` [II-7], for which the IC50 in test [1] came to 53.2 nM; in test [2] (Homo sapiens, T-cell, 24 h), 476 nM.

As to `CN1C(C)(C)CC(Nc2nc(Nc3ccc(Br)c(Cl)c3)ncc2F)CC1(C)C` [Compound I-153], the IC50 in test [1] turned out to be 10.2 nM; in test [2] (Homo sapiens, T-cell, 24 h), 209 nM.

`CN1C(C)(C)CC(Nc2nc(Nc3ccc(N4CCC(F)(F)CC4)c(C(F)(F)F)c3)ncc2F)CC1(C)C` [Compound I-245]: the IC50 in test [1] stood at 329 nM; in test [2] (Homo sapiens, T-cell, 24 h), 539 nM.

For the molecule `CN1C(C)(C)CC(Nc2nc(Nc3cccc(-c4cc5ccccc5s4)c3)ncc2F)CC1(C)C` [Compound I-106], the IC50 amounted to 239 nM in test [1] and 527 nM in test [2] (Homo sapiens, T-cell, 24 h).

For `CN1CCN(c2ccc(Nc3ncc(Cl)c(NC4CC(C)(C)N(C)C(C)(C)C4)n3)cc2C#N)CC1` [Compound I-179], the IC50 in test [1] was determined as 1.49 nM; in test [2] (Homo sapiens, T-cell, 24 h), 92.2 nM.

Turning to `CN1CCN(c2ccc(Nc3ncc(F)c(NC4CC(C)(C)N(C)C(C)(C)C4)n3)cc2C(F)(F)F)CC1` [Compound I-5], the IC50 in test [1] was 5 nM; in test [2] (Homo sapiens, T-cell, 24 h), 86 nM.

In the case of `CCN1CCN(c2ccc(Nc3ncc(F)c(NC4CC(C)(C)N(C)C(C)(C)C4)n3)cn2)CC1` [Compound I-6], the IC50 in test [1] was determined as 180 nM; in test [2] (Homo sapiens, T-cell, 24 h), 1690 nM.

For the molecule `COc1ccc(Nc2ncc(F)c(NC3CC(C)(C)N(C)C(C)(C)C3)n2)cc1Br` [Compound I-159], the IC50 is 7.29 nM in test [1] and 296 nM in test [2] (Homo sapiens, T-cell, 24 h).

With `COc1ccc(Nc2ncc(F)c(NC3CC(C)(C)N(C)C(C)(C)C3)n2)cc1Cl` [Compound I-20], the IC50 was found to be 5 nM in test [1] and 113 nM in test [2] (Homo sapiens, T-cell, 24 h).

Turning to `CN1C(C)(C)CC(Nc2nc(Nc3ccc(N4CCN(S(C)(=O)=O)CC4)c(C#N)c3)ncc2Cl)CC1(C)C` [Compound I-175], the IC50 in test [1] was found to be 7.11 nM; in test [2] (Homo sapiens, T-cell, 24 h), 205 nM.

Take `CN1C(C)(C)CC(Nc2nc(Nc3cccc(-c4cnco4)c3)ncc2F)CC1(C)C` [Compound I-100]: the IC50 in test [1] was determined as 34.4 nM; in test [2] (Homo sapiens, T-cell, 24 h) it was 494 nM.

On to `COc1ccc(Nc2ncc(F)c(NC3CC(C)(C)NC(C)(C)C3)n2)cc1Cl` [Compound I-254], for which the IC50 in test [1] was 53.9 nM; in test [2] (Homo sapiens, T-cell, 24 h), 488 nM.

Regarding `CN1C(C)(C)CC(Nc2nc(Nc3ccc(OC(F)(F)F)c(-c4cccnc4)c3)ncc2F)CC1(C)C` [Compound I-208], the IC50 was 52 nM in test [1] and 467 nM in test [2] (Homo sapiens, T-cell, 24 h).

Turning to `CN1C(C)(C)CC(Nc2nc(Nc3ccc(N4CCN(S(C)(=O)=O)CC4)c(C#N)c3)ncc2F)CC1(C)C` [Compound I-164], the IC50 in test [1] was found to be 2.16 nM; in test [2] (Homo sapiens, T-cell, 24 h), 223 nM.

As to `CN1CCC(Nc2nc(Nc3ccc(N4CCN(C)CC4)c(C(F)(F)F)c3)ncc2F)CC1` [III-3, 5-Fluoro-N2-[4-(4-methylpiperazino)-3-trifluoromethyl]phenyl-N4-(1-methylpiperidin-4-yl)-2,4-pyrimidinediamine], the IC50 is 18 nM in test [1] and 619 nM in test [2] (Homo sapiens, T-cell, 24 h).

Regarding `CN1CCN(c2ccc(Nc3ncc(C#N)c(NC4CC(C)(C)N(C)C(C)(C)C4)n3)cc2C(F)(F)F)CC1` [Compound I-94], the IC50 stood at 11.7 nM in test [1] and 443 nM in test [2] (Homo sapiens, T-cell, 24 h).

`CN1C(C)(C)CC(Nc2nc(Nc3ccc(-c4ccoc4)c(Cl)c3)ncc2F)CC1(C)C` [Compound I-155]: the IC50 was determined as 14.4 nM in test [1] and 418 nM in test [2] (Homo sapiens, T-cell, 24 h).

On to `Cc1cc(Nc2ncc(F)c(NC3CC(C)(C)N(C)C(C)(C)C3)n2)cnc1N1CCN(C)CC1` [Compound I-7], for which the IC50 came to 16 nM in test [1] and 530 nM in test [2] (Homo sapiens, T-cell, 24 h).

In the case of `CN1C(C)(C)CC(Nc2nc(Nc3ccc(-c4ccncc4)c(C#N)c3)ncc2F)CC1(C)C` [Compound I-185], the IC50 in test [1] worked out at 7.65 nM; in test [2] (Homo sapiens, T-cell, 24 h) it was 299 nM.

Regarding `CN1CCN(c2ccc(Nc3ncc(F)c(NC4CC(C)(C)N(C)C(C)(C)C4)n3)cc2F)CC1` [Compound I-39], the IC50 is 15 nM in test [1] and 937 nM in test [2] (Homo sapiens, T-cell, 24 h).

Regarding `CN1C(C)(C)CC(Nc2nc(Nc3ccc(N4CCN(S(C)(=O)=O)CC4)c(OC(F)F)c3)ncc2F)CC1(C)C` [Compound I-238], the IC50 in test [1] came to 3.94 nM; in test [2] (Homo sapiens, T-cell, 24 h) it was 115 nM.

As to `CN1CCN(c2ccc(Nc3ncc(F)c(NC4CC(C)(C)N(C)C(C)(C)C4)n3)cc2Cl)CC1` [Compound I-3], the IC50 in test [1] worked out at 5 nM; in test [2] (Homo sapiens, T-cell, 24 h), 108 nM.
